Source: US5349127A, “Expression of herbicide metabolizing cytochromes P450” (priority 1992, dated 1994)

Assays:
[1] = tested on: S. lividans C37; assay: Percent conversion of herbicides by cultures (Example 16); format: in vitro ADME, Streptomyces lividans; conditions: 3.0 mg herbicide in 25 ml broth; 24 hours
Procedure: (§1) Separate cultures (50 ml) inoculated with S. lividans C37, S. lividans transformed with pCAO200SU1-FeS-B#9, S. griseolus ATCC11796, S. griseolus PH2003 transformed with pIJ425, or S. ariseolus PH2003 transformed with pCS325 were cultured in sporulation broth for 18 hours at 30° C. with shaking. Each culture was then resuspended in 25 ml fresh sporulation broth and 3.0 mg herbicide added. In the case of cultures of S. griseolus ATCC11796, a second culture containing herbicide and 3.0 mg 10001 was also prepared. Each culture was reincubated for 24 hours, then an aliquot of the medium was withdrawn and analyzed by HPLC. The percent conversion of herbicide was determined.

[2] = tested on: S. lividans pCAO200SU1-FeS-B#9; assay: as above; format: in vitro ADME, Streptomyces lividans; conditions: for Percent Conversion: 3.0 mg herbicide in 25 ml broth, 24 hours
Procedure: as §1

[3] = tested on: S. griseolus ATCC 11796, 10001 added; assay: as above; format: in vitro ADME, Streptomyces griseolus; conditions: 3.0 mg herbicide and 3.0 mg 10001 in 25 ml broth; 24 hours
Procedure: as §1

[4] = tested on: S. griseolus ATCC 11796; assay: as above; format: in vitro ADME, Streptomyces griseolus; conditions: 3.0 mg herbicide in 25 ml broth; 24 hours
Procedure: as §1

[5] = tested on: S. griseolus PH2003 pCS325; assay: as above; format: in vitro ADME, Streptomyces griseolus; conditions: 3.0 mg herbicide in 25 ml broth; 24 hours
Procedure: as §1

[6] = tested on: S. griseolus PH2003 pIJ425; assay: as above; format: in vitro ADME, Streptomyces griseolus; conditions: 3.0 mg herbicide in 25 ml broth; 24 hours
Procedure: as §1

[7] = tested on: S. griseolus ATCC11796; assay: Percent conversion of non-sulfonylurea herbicides (Example 29); format: in vitro ADME, Streptomyces griseolus; conditions: 3.0 mg herbicide in 25 ml broth; 18 hours
Procedure: (§2) This experiment was performed as in Example 17 with the following changes. Separate cultures (50 ml) inoculated with S. lividans C37, S. lividans transformed with pCAO200SU1-FeS-B#9, or S. griseolus ATCC11796 were cultured in sporulation broth for 18 hours at 30° C. with shaking. Each culture was then resuspended in 25 ml fresh sporulation broth and 3.0 mg herbicide added. Each culture was reincubated for 18 hours, then an aliquot of the medium was withdrawn and analyzed by HPLC. The percent conversion of herbicide was determined.

[8] = tested on: S. lividans C37; assay: as above; format: in vitro ADME, Streptomyces lividans; conditions: 3.0 mg herbicide in 25 ml broth; 18 hours
Procedure: as §2

[9] = tested on: S. lividans pCAO200SU1-FeS-B#9; assay: as above; format: in vitro ADME, Streptomyces lividans
Procedure: as §2

[10] = biological target: T1, purified cytochrome p450SU1 (Streptomyces griseolus, UniProt P18326); assay: Rate of metabolism of 10015 to 10014 supported by FeS proteins (Example 27); format: biochemical; conditions: 0.2 mM 10015, 15 min
T1 construct: Purified, native cytochromes P450SU1 and P450SU2; endogenous in cells; host or cells: sulfonylurea-induced Streptomyces griseolus cells
T1 sequence (P18326 whole entry, looked up): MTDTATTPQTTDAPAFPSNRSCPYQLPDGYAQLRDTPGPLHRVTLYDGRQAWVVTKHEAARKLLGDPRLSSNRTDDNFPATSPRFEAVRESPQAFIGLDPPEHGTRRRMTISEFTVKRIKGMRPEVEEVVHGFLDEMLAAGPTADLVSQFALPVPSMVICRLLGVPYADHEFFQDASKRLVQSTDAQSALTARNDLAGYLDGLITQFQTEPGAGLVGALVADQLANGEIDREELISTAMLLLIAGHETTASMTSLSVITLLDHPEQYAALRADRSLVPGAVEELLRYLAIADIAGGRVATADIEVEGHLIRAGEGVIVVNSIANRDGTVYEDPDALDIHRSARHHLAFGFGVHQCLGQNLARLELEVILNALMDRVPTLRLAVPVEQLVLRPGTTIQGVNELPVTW
Procedure: The purpose of this example was to define the combination of cytochrome p450SU1 and other proteins which results in optimal metabolism of sulfonylureas, based on conclusions from in vitro experiments. In these experiments, the rate of metabolism of 10015 to 10014, mediated by purified cytochrome p450SU1, was tested to find which FeS protein functions as the best direct electron donor.
The reaction was initiated by-the addition of NADPH to a final concentration of 0.03 mM. After 15 min the reaction was terminated by the addition of 0.25 ml H2 O:acetonitrile:H3 PO4^- (80:19:1). After filtering this mixture through a 0.2 μm filter, the amount of metabolite (10014) formed was analyzed by HPLC.

Cc1ccc(NC(=O)N(C)C)cc1Cl [compound 10019, 3-(3-chloro-p-tolyl)-1,1-dimethylurea]
Percent Conversion [1]: 0% | Percent Conversion [2]: 35% | metabolism by bacteria containing constitutively expressed P450SU1 ([2]; summary of Table 13): metabolized | Percent Conversion [3]: 80% | Percent Conversion [4]: 0% | Percent Conversion [5]: 9% | Percent Conversion [6]: 0%

N#Cc1cc(Br)c(O)c(Br)c1 [compound 10023, 3,5-dibromo-4-hydroxybenzonitrile]
Percent Conversion [1]: 0% | Percent Conversion [2]: 0% | Percent Conversion [3]: 0% | Percent Conversion [4]: 0%

CCc1cnc(C2=NC(C)(C(C)C)C(=O)N2)c(C(=O)O)c1 (stereo not drawn) [compound 10034]
Percent Conversion [7]: 13% | Percent Conversion [8]: 10% | Percent Conversion ([9]; 3.0 mg herbicide in 25 ml broth, 18 hours): 69% | metabolism by bacteria containing constitutively expressed P450SU1 ([9]; summary of Table 29): metabolized

spinach Fd: spinach ferredoxin (an FeS protein)
Rate of 10015 metabolism to 10014 [10]: 0.4 (nmol 10014)·(nmol p450)-1·(mi | Rate of 10015 metabolism to 10014 ([10]; 4 mM FeS addition, FNR 0.2 mM): 0.2 (nmol 10014)·(nmol p450)-1·(mi | Rate of 10015 metabolism to 10014 ([10]; 4 mM FeS addition, FNR 2.0 mM): 0.2 (nmol 10014)·(nmol p450)-1·(mi
